For one assay, the system named is Human platelets. The following applies: static conditions, with and without 0.1 U/mL thrombin.
A further assay addresses T1, Pearl 1 (Homo sapiens, UniProt Q5VY43).
T1 construct: endogenous in cells; host or cells: freshly isolated human platelets
T1 sequence (Q5VY43 21-1037): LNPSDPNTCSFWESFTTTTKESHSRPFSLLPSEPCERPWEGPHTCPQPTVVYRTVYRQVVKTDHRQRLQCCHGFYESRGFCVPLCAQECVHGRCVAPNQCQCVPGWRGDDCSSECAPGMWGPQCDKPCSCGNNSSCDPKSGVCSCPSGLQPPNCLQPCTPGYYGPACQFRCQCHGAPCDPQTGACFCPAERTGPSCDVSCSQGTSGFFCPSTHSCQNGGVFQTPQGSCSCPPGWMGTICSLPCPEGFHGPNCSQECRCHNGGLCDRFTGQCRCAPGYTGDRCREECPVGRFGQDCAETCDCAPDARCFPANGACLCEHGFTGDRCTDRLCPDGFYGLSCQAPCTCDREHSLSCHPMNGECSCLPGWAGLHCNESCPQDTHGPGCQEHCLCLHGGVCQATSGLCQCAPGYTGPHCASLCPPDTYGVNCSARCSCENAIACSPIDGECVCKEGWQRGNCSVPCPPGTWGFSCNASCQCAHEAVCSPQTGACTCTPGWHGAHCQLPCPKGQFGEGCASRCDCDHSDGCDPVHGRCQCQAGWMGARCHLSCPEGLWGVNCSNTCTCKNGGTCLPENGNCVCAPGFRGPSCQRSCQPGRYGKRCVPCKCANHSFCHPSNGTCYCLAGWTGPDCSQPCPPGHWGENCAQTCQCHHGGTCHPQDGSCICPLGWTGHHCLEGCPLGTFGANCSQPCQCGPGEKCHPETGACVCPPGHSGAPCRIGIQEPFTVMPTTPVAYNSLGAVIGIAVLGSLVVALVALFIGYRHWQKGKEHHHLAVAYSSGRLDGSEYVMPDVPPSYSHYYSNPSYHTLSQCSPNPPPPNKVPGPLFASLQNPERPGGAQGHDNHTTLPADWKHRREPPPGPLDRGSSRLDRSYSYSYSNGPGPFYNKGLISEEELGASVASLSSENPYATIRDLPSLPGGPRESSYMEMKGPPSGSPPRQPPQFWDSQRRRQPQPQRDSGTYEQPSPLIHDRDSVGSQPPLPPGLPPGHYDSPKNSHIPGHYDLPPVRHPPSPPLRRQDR
The assay is described as follows: Pearl 1 immunoprecipitation and pTyrosine immunoblot, platelets. It is filed as cell-based. The following applies: 15 minutes exposure, vs BSA. The protocol:
Subsequently, 204, of BSA-blocked Invitrogen Protein A Dynabeads slurry was added, followed by rotation for 45 minutes. The beads were separated using magnetism and washed with RIPA buffer 4-5 times, then resuspended with reducing LDS sample buffer and analyzed by immunoblot assay. Bands for p-tyrosine and Pearl 1 were detected at ˜140 kDa.
Prior to performing signaling assays, cells were trypsinized, centrifuged, suspended in basal media, and counted using an automated hemocytometer. Cells were further diluted in basal media to an assay-dependent concentration. Cells were then incubated with gentle agitation for 60 minutes to prevent cell attachment and reduce basal signaling. PP1, Dynasore, MK-2206, and Rapamycin were diluted in DMSO and used in assay concentrations of 10 μM, 100 μM, 10 μM, and respectively, for the final 20-30 minutes of incubation in basal media. An equal volume of DMSO was used as the negative control condition. […] 1 μg Pearl 1 polyclonal antibody was added as a specific positive control. 20% growth media or 2% fetal bovine serum, labeled “Serum” in figures, was added as a non-specific positive control. The cells were centrifuged at 300G for 3 minutes with the exception of platelets, which were centrifuged at 500G for 5 minutes. […] Protein content was determined using a bicinchoninic acid assay with BSA standards (#23225, Pierce BCA Protein Assay Kit). […]

A further assay concerns AKT. Nature of the assay: AKT signaling immunoblot / phospho-array, HUVECs. Type of assay: cell-based, human. The protocol: Cellular reagents were purchased from various commercial vendors. Primary human umbilical vein endothelial cells (HUVECs) were obtained from Cell Applications Inc. and cultured according to the manufacture's recommendations. Primary human coronary artery smooth muscle cells were obtained from Invitrogen and were cultured according to the manufacture's recommendations. 293T cells were obtained from ATCC and were cultured according to the manufacture's recommendations. Mouse primary smooth muscle cells were obtained and cultured as described previously. Predesigned Silencer Select siRNA constructs targeting Pearl 1 and negative control siRNA were obtained from ThermoFisher. Transfections were performed using RNAiMAX or Lipofectamine 3000 transfection reagents according to the manufacturer's protocols. Cells were used for signaling assays 48 hours after transfection; efficient Pearl 1 knockdown or Pearl 1 overexpression was confirmed by immunoblot assays.
Prior to performing signaling assays, cells were trypsinized, centrifuged, suspended in basal media, and counted using an automated hemocytometer. Cells were further diluted in basal media to an assay-dependent concentration. Cells were then incubated with gentle agitation for 60 minutes to prevent cell attachment and reduce basal signaling. PP1, Dynasore, MK-2206, and Rapamycin were diluted in DMSO and used in assay concentrations of 10 μM, 100 μM, 10 μM, and respectively, for the final 20-30 minutes of incubation in basal media. An equal volume of DMSO was used as the negative control condition. […] 1 μg Pearl 1 polyclonal antibody was added as a specific positive control. 20% growth media or 2% fetal bovine serum, labeled “Serum” in figures, was added as a non-specific positive control. The cells were centrifuged at 300G for 3 minutes with the exception of platelets, which were centrifuged at 500G for 5 minutes. The cells were then incubated at 37° C. for 8-45 minutes, depending on the cell type and pathway of interest. The cells were lysed in radioimmunoprecipitation buffer (RIPA) containing a cocktail of protease and phosphatase inhibitors and universal nuclease. Immunoblots were performed by standard techniques, as briefly follows. Protein content was determined using a bicinchoninic acid assay with BSA standards (#23225, Pierce BCA Protein Assay Kit). Cell lysates were then reduced with dithiothreitol (DTT) in lithium dodecyl sulfate (LDS) sample buffer (#NP0007, Invitrogen). Equal protein amounts were added to polyacrylamide gels (#4561086, BioRad) and electrophoresed prior to transferring to a nitrocellulose or polyvinylidene fluoride membrane (#1620260, BioRad). Membranes were blocked in 5% BSA/Tris-buffered saline (TBS) with 0.1% Tween 20 for 30 minutes. […]
(In general: Immunoblotting shows a protein as a band on a membrane.)

Protocol for Human platelets: Subsequently, coverslips were blocked with 1% BSA and washed with PBS. Human platelets were isolated from whole blood and re-suspended in Tyrode's buffer. 2×10^7/mL basal or thrombin activated platelets were added to coverslips and incubated at 37° C. for 10, 20, or 30 minutes. After incubation, non-adherent platelets were removed and the coverslips were washed with PBS, fixed with 1.5% paraformaldehyde, permeabilized with 0.01% Triton-X and stained with TRITC phalloidin. Platelets were visualized using fluorescent microscopy. Images of the adhered platelets were captured using fluorescent microscopy and counted manually by a blinded observer.

For “SVEP1: recombinant murine SVEP1 extracellular matrix protein with Myc and poly-histidine tag, expressed in 293F cells”, the “adherence of platelets to coated coverslips” value in the assay with Human platelets is on record as “adhered”. Also, in the assay with Pearl 1, the “phospho-tyrosine signal of Pearl 1 (140 kDa)” value is “robust phospho-tyrosine signal”. Also, in the assay on AKT (10 or 30 minutes, SVEP1 relative to BSA), the “pAKT, AKT pathway phospho-array” value is on record as “Elevated pAKT”. The AKT signaling entry in the assay on AKT (relative to BSA controls) is given as “activated”.
